Columns and labels:
[1] = system: ROS 17/2.8 rat osteosarcoma cells; assay: effect on intracellular cAMP in ROS 17/2.8 cells; assay type: cell-based
Method: (§1) RCT-1 and RCT-3 are clonal cell lines immortalized by SV-40 large T antigen from cells released from fetal rat calvair by a combination collagenase/hyaluronidase digestion. RCT-1 cells, derived from cells released during the first 10 minutes of digestion (fraction I), are cultured in RPMI 1640 medium (BRL) with 10% fetal bovine serum and 0.4 mg/ml G418 (BRL). These cells differentiate and express osteoblastic features upon retinoic acid treatment. RCT-3 cells, immortalized from osteoblast-enriched fraction III cells, are cultured in F-12 medium (BRL) with 5% Fetal bovine serum and 0.4 mg/ml G418. TRAB-11 cells are also immortalized by SV40 large T antigen from adult rat tibia and are cultured in RPMI 1640 medium with 10% FBS and 0.4 mg/ml G418. ROS 17/2.8 rat osteosarcoma cells are cultured in F-12 containing 5% FBS. Osteoblast-enriched (fraction III) primary fetal rat calvaria cells are obtained by collagenase/hyaluronidase digestion of calvariae of 19 day-old rat fetuses. See Rodan et al., Growth stimulation of rat calvaria osteoblastic cells by acidic FGF, Endocrinology, 121, 1919-1923 (1987), which is incorporated by reference herein in its entirety. Cells are released during 30-50 minutes digestion (fraction […]) and are cultured in F-12 medium containing 5% FBS. […]

RCT-3 cells = assay: effect on intracellular cAMP in RCT-3 cells; assay type: cell-based, rat
Method: as §1

TRAB-11 cells = assay: effect on intracellular cAMP in TRAB-11 cells; assay type: cell-based, rat
Method: as §1

[2] = system: EP4 mRNA in RP-1 periosteal cells; assay: EP4 mRNA expression (Northern blot) in RP-1 periosteal cells; assay type: cell-based, rat; conditions: 10^−6 M
Method: (§2) RP-1 periosteal cells are spontaneously immortalized from primary cultures of periosteal cells from tibae of 4-week old Sprague-Dawley rats and are cultured in DMEM (BRL, Gaithersburg, Md.) with 10% fetal bovine serum (JRH Biosciences, Lenexa, Kans.).
(§3) Total RNA is extracted from the tibial metaphysis or diaphysis and calvaria using a guanidinium isothiocyanate-phenol-chloroform method after pulverizing frozen bone samples by a tissue homogenizer. See P. Chomczynski et al., Single-step method of RNA isolation by acid guanidium thiocyanate-phenol-chloroform extraction., Analyt Biochem, 162, 156-159 (1987), which is incorporated by reference herein in its entirety. RNA samples ([…]) are separated on 0.9% agarose/formaldehyde gels and transferred onto nylon membranes (Boehringer Mannheim, Germany). Membranes are prehybridized in Hybrisol I (Oncor, Gaithersburg, Md.) and 0.5 mg/ml sonicated salmon sperm DNA (Boehringer) at 42° C. for 3 hours and are hybridized at 42° C. with rat EP2 and mouse EP4 cDNA probes labeled with [^32P]-dCTP (Amersham, Buckinghamshire, UK) by random priming using the rediprime kit (Amersham). After hybridization, membranes are washed 4 times in 2×SSC+0.1% SDS at room temperature for a total of 1 hour and once with 0.2×SSC+0.1% SDS at 55° C. for 1 hour and then exposed to Kodak XAR 2 film at −70° C. using intensifying screens. […]

EP4 mRNA in RCT-3 cells = assay: EP4 mRNA expression (Northern blot) in RCT-3 cells; assay type: cell-based, rat
Method: as §1

EP2 mRNA in RP-1 cells = assay: EP2 mRNA expression (Northern blot) in RP-1 cells; assay type: cell-based, rat
Method: as §2, §3

EP4 mRNA in bone tissue = assay: EP4 mRNA levels in bone tissue of rats after systemic injection (Northern blot); assay type: in vivo, rat; conditions: five-week-old male rats; 3-6 mg/Kg injected
From the text: For mRNA localization experiments, 5-week old Sprague-Dawley rats (Charles River) are euthanized by CO2, their tibiae and calvariae are excised, cleaned of soft tissues and frozen immediately in liquid nitrogen. […] Animals are euthanized at several time points post-injection and their tibiae and calvariae, as well as samples from lung and kidney tissues are frozen in liquid nitrogen.
as §3, with “(Amersham).” for “(Amersham). After hybridization, membranes are washed 4 times in 2×SSC+0.1% SDS at room temperature for a total of 1 hour and once with 0.2×SSC+0.1% SDS at 55° C. for 1 hour and then exposed to Kodak XAR 2 film at −70° C. using intensifying screens.”

EP2 mRNA in bone tissue = EP2 mRNA in bone tissue of rats after systemic injection (Northern blot); assay type: in vivo, rat; conditions: 3-6 mg/Kg injected
Method: (§4) For mRNA localization experiments, 5-week old Sprague-Dawley rats (Charles River) are euthanized by CO2, their tibiae and calvariae are excised, cleaned of soft tissues and frozen immediately in liquid nitrogen. For EP4 regulation experiments, 6-week old rats are given a single injection of either vehicle (7% ethanol in sterile water) or an anabolic dose of PGE2 (Cayman Chemical, Ann Arbor, Mich.), 3-6 mg/kg in the same vehicle) intraperitoneally. Animals are euthanized at several time points post-injection and their tibiae and calvariae, as well as samples from lung and kidney tissues are frozen in liquid nitrogen.
Total RNA is extracted from the tibial metaphysis or diaphysis and calvaria using a guanidinium isothiocyanate-phenol-chloroform method after pulverizing frozen bone samples by a tissue homogenizer. See P. Chomczynski et al., Single-step method of RNA isolation by acid guanidium thiocyanate-phenol-chloroform extraction., Analyt Biochem, 162, 156-159 (1987), which is incorporated by reference herein in its entirety. RNA samples ([…]) are separated on 0.9% agarose/formaldehyde gels and transferred onto nylon membranes (Boehringer Mannheim, Germany). […]

[3] = system: EP4 expression in bone marrow cells; assay: localization of EP4 mRNA expression in bone tissue by in situ hybridization; assay type: in vivo, rat; conditions: rats, single anabolic dose
Method: as §4
Frozen tibiae are sectioned coronally at […] thickness and sections are mounted on charged slides (Probe On Plus, Fisher Scientific, Springfield, N.J.) and are kept at −70° C. until hybridization. cRNA probes are labeled with ^35S-UTPgS (ICN, Costa Mesa, Calif.) using a Riboprobe II kit (Promega Madison, Wis.). Hybridization is performed overnight at 50° C. […]
In situ hybridization is used in order to localize cells expressing EP4 in bone. In control experiment (vehicle-injected) rats, low expression of EP4 is detected in bone marrow cells. […]

[4] = ocular tolerability in rabbits, topical ophthalmic solution; assay type: in vivo, rabbits (New Zealand white rabbits)
Method: Drug concentrations are expressed in terms of the active ingredient (base). The compounds of this invention are dissolved in a suitable ophthalmic solution (e.g., 0.5% Polysorbate-80, 0.02% benzalkonium chloride, 0.1% EDTA, 4.5% mannitol in 5 mM citrate) at 22, 2.2 and 0.22 μM for rabbit study and 111, 33, 11, and 1.1 μM for monkey studies. Drug or vehicle aliquots (25 ul) are administered topically unilaterally or bilaterally. In unilateral applications, the contralateral eyes receive an equal volume of vehicle. Proparacaine (0.5%) is applied to the cornea prior to tonometry to minimize discomfort. Intraocular pressure (IOP) is recorded using a pneumatic tonometer (Alcon Applanation Pneumatonograph) or equivalent.

[5] = ocular tolerability in cynomolgus monkeys; assay type: in vivo; conditions: compared to compounds disclosed in WO 2004/085430 (Example 2)

CCCCC[C@H](O)/C=C/[C@H]1[C@H](O)CC(=O)[C@@H]1C/C=C\CCCC(=O)O [PGE2]
effect on intracellular cAMP [1]: no effect | effect on intracellular cAMP (RCT-3 cells): markedly induced | effect on intracellular cAMP (TRAB-11 cells): markedly induced | effect on EP4 mRNA levels [2]: rapidly increases EP4 mRNA levels | time of peak EP4 mRNA levels after treatment [2]: 2 h | effect on EP4 mRNA levels (EP4 mRNA in RCT-3 cells): no effect | EP2 mRNA expression before or after treatment (EP2 mRNA in RP-1 cells): not expressed | effect on EP4 mRNA levels in the tibial diaphysis (EP4 mRNA in bone tissue): rapidly increased EP4 mRNA levels | time of peak EP4 mRNA levels in the tibial diaphysis after injection (EP4 mRNA in bone tissue): 2 h | induction of EP2 mRNA in bone tissue (EP2 mRNA in bone tissue): does not induce EP2 mRNA | expression of EP4 in bone marrow cells [3]: increased the expression of EP4 in bone marrow cells

CC(C)OC(=O)c1ccc(CCN2C(=O)OCC[C@@H]2CC[C@@H](O)C(F)(F)c2cccc(Br)c2)cc1 [Example 3, isopropyl 4-(2-{(4S)-4-[(3R)-4-(3-bromophenyl)-4,4-difluoro-3-hydroxybutyl]-2-oxo-1,3-oxazinan-3-yl}ethyl)benzoate]
drug treatment related ocular adverse effects (eye closure) ([4]; New Zealand white rabbits, single dose, topical, unilateral, 2.2 μM (25 μL) ophthalmic solution, vehicle panel-controlled): very slight drug treatment related ocular adverse effects (eye closure)

CC(C)OC(=O)c1ccc(CCN2C(=O)OCC[C@@H]2/C=C/[C@@H](O)C(F)(F)c2cccc(Br)c2)cc1 [Example 1, isopropyl 4-(2-{(4R)-4-[(1E,3R)-4-(3-bromophenyl)-4,4-difluoro-3-hydroxybut-1-en-1-yl]-2-oxo-1,3-oxazinan-3-yl}ethyl)benzoate]
ocular tolerability ([4]; rabbits, compared to compounds disclosed in WO 2004/085430 (Example 2)): improved ocular tolerability | ocular tolerability [5]: improved ocular tolerability
